Patent US6706664B1, “Benzoxazole compounds, process for the preparation thereof and herbicides” (UBE Industries, Ltd., priority 1999, dated 2004)

Key:
Design in all cases: key: 0: normal development; 1: Less damaged; 2: Slightly damaged; 3: Moderately damaged; 4: Severely damaged; 5: All killed
barnyardgrass [1] = experiment: Herbicidal test for paddy field; assay type: in vivo, Echinochloa crusgalli; conditions: paddy field pot, 500 g/ha dropwise at 1.5 leaf stage of barnyardgrass, 3 weeks, rank vs non-treated
How it was run: (§1)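 Flooded pots (3 cm water) of alluvial soil were sown with seeds or tubers, and wettable-powder formulations in 0.05% surfactant water were dripped in at 500 g/ha at the 1.5-leaf stage of barnyardgrass. Plants were kept 3 weeks in a glasshouse at an average 25° C. Damage was scored 0 (normal) to 5 (all killed) against untreated controls.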

monochoria = experiment: Herbicidal test for paddy field; assay type: in vivo, Monochoria vaginalis; conditions: paddy field pot, 500 g/ha dropwise at 1.5 leaf stage of barnyardgrass, 3 weeks, rank vs non-treated
How it was run: as §1

corn = experiment: Soil treatment test for upland field; assay type: in vivo; conditions: 500 g/ha, glass house 25° C., 3 weeks
How it was run: (§2)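 Pre-emergence: seeds sown in Ube alluvial soil in pots, then soil surface sprayed with wettable-powder formulation diluted in water with 0.05% surfactant at 500 g/ha. Plants kept in glasshouse at average 25° C for 3 weeks; injury scored 0 (normal) to 5 (all killed).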

cotton = experiment: Soil treatment test for upland field; assay type: in vivo; conditions: 500 g/ha, glass house 25° C., 3 weeks
How it was run: as §2

solgum = experiment: Soil treatment test for upland field; assay type: in vivo; conditions: 500 g/ha, glass house 25° C., 3 weeks
How it was run: as §2

sugar beat = experiment: Soil treatment test for upland field; assay type: in vivo; conditions: 500 g/ha, glass house 25° C., 3 weeks
How it was run: as §2

wheat = experiment: Soil treatment test for upland field; assay type: in vivo; conditions: 500 g/ha, glass house 25° C., 3 weeks
How it was run: as §2

Large crabgrass [2] = experiment: Soil treatment test for upland field; assay type: in vivo, Digitaria adscendens; conditions: 500 g/ha, glass house 25° C., 3 weeks
How it was run: as §2

barnyardgrass [3] = experiment: Soil treatment test for upland field; assay type: in vivo, Echinochloa crusgalli; conditions: 500 g/ha, glass house 25° C., 3 weeks
How it was run: as §2

green foxtail [4] = experiment: Soil treatment test for upland field; assay type: in vivo, Setaria viridis; conditions: 500 g/ha, glass house 25° C., 3 weeks
How it was run: as §2

livid amaranth = experiment: Soil treatment test for upland field; assay type: in vivo, Amaranthus lividus; conditions: 500 g/ha, glass house 25° C., 3 weeks
How it was run: as §2

velvetleaf [5] = experiment: Soil treatment test for upland field; assay type: in vivo, Abutilon theophrasti; conditions: 500 g/ha, glass house 25° C., 3 weeks
How it was run: as §2

Large crabgrass [6] = experiment: Foliar spread test for upland field; assay type: in vivo, Digitaria adscendens; conditions: foliar spray 500 ppm, 3 weeks, rank vs non-treated
How it was run: (§3)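 Crops and weeds grown about 2 weeks in volcanic ash soil in a glasshouse, then sprayed with wettable-powder formulations diluted to 500 ppm in water with 0.5% surfactant. After 3 weeks at 25 °C, injury scored visually 0 (normal) to 5 (all killed).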

green foxtail [7] = experiment: Foliar spread test for upland field; assay type: in vivo, Setaria viridis; conditions: foliar spray 500 ppm, 3 weeks, rank vs non-treated
How it was run: as §3

annual bluegrass = experiment: Foliar spread test for upland field; assay type: in vivo, Poa annua; conditions: foliar spray 500 ppm, 3 weeks, rank vs non-treated
How it was run: as §3

common lambsquartes = experiment: Foliar spread test for upland field; assay type: in vivo, Chenopodium album; conditions: foliar spray 500 ppm, 3 weeks, rank vs non-treated
How it was run: as §3

velvetleaf [8] = experiment: Foliar spread test for upland field; assay type: in vivo, Abutilon theophrasti; conditions: foliar spray 500 ppm, 3 weeks, rank vs non-treated
How it was run: as §3

morning glory = experiment: Foliar spread test for upland field; assay type: in vivo, Ipomoea spps.; conditions: foliar spray 500 ppm, 3 weeks, rank vs non-treated
How it was run: as §3

soybean = experiment: Soil treatment test for upland field; assay type: in vivo; conditions: 500 g/ha, glass house 25° C., 3 weeks
How it was run: as §2

Row | Compound | Effect Barnyardgrass (barnyardgrass [1]) | Effect Monochoria (monochoria) | Effects Corn (corn) | Effects Cotton (cotton) | Effects Solgum (solgum) | Effects Sugar beat (sugar beat) | Effects Wheat (wheat) | Effects Large crabgrass (Large crabgrass [2]) | Effects Barnyardgrass (barnyardgrass [3]) | Effects Green foxtail (green foxtail [4]) | Effects Livid amaranth (livid amaranth) | Effects Velvetleaf (velvetleaf [5]) | Effects Large crabgrass (Large crabgrass [6]) | Effects Green foxtail (green foxtail [7]) | Effects Annual bluegrass (annual bluegrass) | Effects Common lambsquarters (common lambsquartes) | Effects Velvetleaf (velvetleaf [8]) | Effects Morning glory (morning glory) | Effects Soybean (soybean)
1 | CCC(Oc1ccc(F)c(C(F)(F)F)c1)c1nc2cc(C(F)(F)F)ccc2o1 (centres unmarked) [Compound 197] | 4 | 5 | 2 | 3 | 2 | 5 | 2 | 5 | 5 | 5 | 5 | 5 | 3 | 5 | 2 | 4 | 3 | 4 | –
2 | CCC(Oc1cccc(OC(F)(F)F)c1)c1nc2cc(C#N)c(C#N)cc2o1 (centres unmarked) [Compound 527] | 4 | 4 | 2 | 0 | 1 | 5 | 1 | 5 | 4 | 5 | 5 | 5 | 2 | 5 | 5 | 5 | 3 | – | 1
3 | CCC(Oc1cccc(C(F)(F)F)c1)c1nc2cc(C#N)c(Cl)cc2o1 (centres unmarked) [Compound 529] | 5 | 5 | 1 | – | 1 | 5 | – | 5 | 5 | 5 | 5 | 5 | 4 | 5 | 4 | 5 | 3 | 3 | 1
4 | CCC(Oc1cccc(C(F)(F)F)c1)c1nc2cc(F)c(C(F)(F)F)cc2o1 (centres unmarked) [Compound 471] | 5 | 5 | – | 1 | 3 | 5 | 1 | 5 | 5 | 5 | 5 | 5 | 5 | 5 | 3 | 5 | 3 | 5 | 2
5 | CCCC(Oc1ccc(F)c(C(F)(F)F)c1)c1nc2cc(Cl)ccc2o1 (centres unmarked) [Compound 141] | 5 | 5 | 1 | – | 2 | 5 | 0 | 5 | 3 | 5 | 5 | 5 | 4 | 4 | 4 | 4 | 4 | 4 | 2
6 | CCC(Oc1cccc(C(F)(F)F)c1)c1nc2cc(F)ccc2o1 (centres unmarked) [Compound 120] | 4 | 5 | 0 | 0 | 1 | 3 | 0 | 5 | 4 | 5 | 3 | 3 | 1 | 3 | 1 | 4 | – | 5 | 0
7 | CCC(Oc1ccc(Cl)c(C(F)(F)F)c1)c1nc2cc(F)ccc2o1 (centres unmarked) [Compound 441] | 5 | 5 | 0 | 0 | 1 | 5 | 1 | 5 | 5 | 5 | 5 | 1 | 2 | 3 | 1 | 3 | – | 1 | 0
